Test systems include CAKI-1; M14; HT-29; BT-549; HL-60; HOP-92; NCI-H226; SK-MEL-28; Hs-578T; SF-268; DU-145; SW-620; COLO 205; HCT-116; SK-MEL-5; NCI-H460; K562; MCF7; HOP-62; RPMI-8226.
What all share (test): NCI tumour cell line growth inhibition, 48 h

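Each compound was tested at five concentrations against cells in 96-well plates for 48 hours. GI50 = concentration required for 50% inhibition of growth.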 Calls of active or inactive are those of the source. Cut-off read from the data, not from the text of the source: active = GI50 up to about 1.1 µM and inactive = higher.

Regarding `CCSC12CC3c4cccc5c4C(CN5C(=O)c4ccccc4)CC3(O1)N(C)C2=O` (stereo not drawn), the GI50 was 92 µM (inactive) in the test on CAKI-1; 46.7 µM (inactive) in the test with M14; 42.6 µM (inactive) with HT-29; 26.1 µM (inactive) in the test on BT-549; 22.7 µM (inactive) with HL-60; 24.1 µM (inactive) in the test with HOP-92. Moreover, the GI50 is 39.6 µM (inactive) in the test with NCI-H226; 48.4 µM (inactive) in the test with SK-MEL-28; 46.3 µM (inactive) with Hs-578T; 42.7 µM (inactive) in the test on SF-268; 51.8 µM (inactive) in the test with DU-145; 75.5 µM (inactive) in the test with SW-620. The GI50 is 26.1 µM (inactive) with COLO 205; 30.1 µM (inactive) in the test with HCT-116; 14.7 µM (inactive) in the test on SK-MEL-5; 37.8 µM (inactive) with NCI-H460; 33.3 µM (inactive) in the test on K562.
Turning to `S=C1Nc2ccccc2SC1c1ccccc1` (stereo not drawn), the GI50 is > 100 µM (inactive) in the test on CAKI-1; > 100 µM (inactive) in the test on M14; > 100 µM (inactive) in the test on HT-29; > 100 µM (inactive) with BT-549; 5.22 µM (inactive) in the test with HL-60; > 100 µM (inactive) in the test with MCF7. Further, the GI50 with NCI-H226 was 28.6 µM (inactive); in the test on HOP-62, 24.8 µM (inactive); in the test on RPMI-8226, > 100 µM (inactive); with SK-MEL-28, > 100 µM (inactive); in the test with Hs-578T, 19.9 µM (inactive); with SF-268, 30.3 µM (inactive). For the same compound, the GI50 in the test on DU-145 is > 100 µM (inactive); in the test on COLO 205, > 100 µM (inactive); in the test with HCT-116, > 100 µM (inactive); in the test with SK-MEL-5, > 100 µM (inactive); in the test on NCI-H460, > 100 µM (inactive); in the test with K562, 94.8 µM (inactive).
In the case of `Cn1cc(C=C(C#N)C#N)c(=O)n(C)c1=O`, the GI50 in the test on CAKI-1, in the test on M14, with HT-29, in the test with BT-549, with HOP-92 and in the test on MCF7 was > 100 µM (inactive) in each case. For the same compound, the GI50 in the test on NCI-H226 was > 100 µM (inactive); in the test on HOP-62, > 100 µM (inactive); with RPMI-8226, 52 µM (inactive); with SK-MEL-28 it was > 100 µM (inactive); in the test on Hs-578T it was > 100 µM (inactive); with SF-268, > 100 µM (inactive). Further, the GI50 was > 100 µM (inactive) in the test on DU-145; 56.1 µM (inactive) in the test with SW-620; > 100 µM (inactive) with COLO 205; > 100 µM (inactive) in the test with HCT-116; > 100 µM (inactive) in the test on SK-MEL-5; > 100 µM (inactive) in the test with NCI-H460.
Take `S=C(N1CCN(c2ccc(Cl)c(Cl)c2)CC1)N1CCN(c2ccc(Cl)c(Cl)c2)CC1`: the GI50 in the test on CAKI-1 is 7.4 µM (inactive); with M14, 15.6 µM (inactive); with HT-29 it was 9.42 µM (inactive); with BT-549, 16.2 µM (inactive); in the test with MCF7, 11.7 µM (inactive); in the test with NCI-H226, 11.1 µM (inactive). Further, the GI50 with HOP-62 is 12.5 µM (inactive); in the test on RPMI-8226, 18 µM (inactive); with SK-MEL-28, 14.7 µM (inactive); in the test on Hs-578T it was 6.52 µM (inactive); in the test with SF-268 it was 14.4 µM (inactive); in the test on DU-145, 12.4 µM (inactive). Moreover, the GI50 with SW-620 was 17.5 µM (inactive); in the test on COLO 205, 10.6 µM (inactive); with HCT-116, 7.19 µM (inactive); in the test with SK-MEL-5, 15.1 µM (inactive); in the test with K562, 12.2 µM (inactive).
Regarding `CN(C)C(=O)Oc1ccc[n+](C)c1` [PYRIDOSTIGMINE BROMIDE], the GI50 in the test with CAKI-1, in the test on HT-29, in the test with BT-549, in the test on HL-60, in the test on MCF7 and in the test on NCI-H226 was > 100 µM (inactive) throughout. The GI50 in the test with HOP-62, in the test on RPMI-8226, in the test on SK-MEL-28, in the test on Hs-578T, with SF-268 and in the test on DU-145 was > 100 µM (inactive) throughout. The GI50 in the test on SW-620, with COLO 205, in the test with HCT-116, in the test on SK-MEL-5, with NCI-H460 and in the test on K562 was > 100 µM (inactive) in each case.
With `O=C1c2cccnc2S(=O)(=O)N1c1ccc(Br)cc1`, the GI50 in the test with CAKI-1 is > 100 µM (inactive); in the test with M14, > 100 µM (inactive); with HT-29 it was > 100 µM (inactive); in the test on BT-549, 79.1 µM (inactive); in the test with HL-60, < 0.01 µM (active); in the test with HOP-92, 99.8 µM (inactive). The GI50 in the test with NCI-H226 is > 100 µM (inactive); in the test on HOP-62, > 100 µM (inactive); in the test on RPMI-8226, 91.6 µM (inactive); in the test on SK-MEL-28, > 100 µM (inactive); in the test with Hs-578T, > 100 µM (inactive); in the test with SF-268, > 100 µM (inactive). The GI50 with DU-145 is > 100 µM (inactive); in the test with SW-620, > 100 µM (inactive); with COLO 205 it was > 100 µM (inactive); with HCT-116, > 100 µM (inactive); in the test with SK-MEL-5, > 100 µM (inactive); with K562, 41.6 µM (inactive).
Regarding `CN(C)CCn1c(=O)oc2cc(C(=O)CN3CCOCC3)ccc21`, the GI50 in the test with CAKI-1, in the test with M14, in the test on HT-29, in the test with BT-549, in the test with HL-60 and in the test on MCF7 was > 100 µM (inactive) each time. Further, the GI50 in the test with NCI-H226, with HOP-62, with RPMI-8226, with SK-MEL-28, in the test with Hs-578T and in the test with SF-268 was > 100 µM (inactive) each time. The GI50 in the test with DU-145, in the test on SW-620, in the test on COLO 205, with HCT-116, with SK-MEL-5 and in the test on NCI-H460 was > 100 µM (inactive) in each case. For the same compound, the GI50 with K562 was > 100 µM (inactive).
As for `Cc1ccc(C)n1-n1c(Cc2ccccc2)n[nH]c1=O`, the GI50 in the test on CAKI-1, in the test on M14, in the test on HT-29, in the test on BT-549, in the test on MCF7 and in the test on NCI-H226 was > 100 µM (inactive) each time. In addition, the GI50 is > 100 µM (inactive) in the test with HOP-62; 91.2 µM (inactive) with RPMI-8226; > 100 µM (inactive) in the test with SK-MEL-28; > 100 µM (inactive) in the test with Hs-578T; > 100 µM (inactive) with SF-268; > 100 µM (inactive) with DU-145. Moreover, the GI50 with SW-620 was > 100 µM (inactive); in the test with COLO 205, 76.7 µM (inactive); in the test with HCT-116 it was > 100 µM (inactive); in the test with SK-MEL-5 it was > 100 µM (inactive); in the test on NCI-H460, > 100 µM (inactive); with K562 it was > 100 µM (inactive).

(Values after ChEMBL document CHEMBL1201862, “PubChem BioAssay data set” (2004).)
